Results taken from the NIST ThermoML archive (doi:10.1016/j.fluid.2015.03.023).
± gives the expanded uncertainty stated by the source.

Settings: Liquid; for mass density: 298.15 K, 101.33 kPa, Vibrating tube method; for vapor or sublimation pressure: 308.15 K, Ebulliometric method (Recirculating still)

Compound | mass density [kg/m3] | vapor or sublimation pressure [kPa]
ClCBr [bromochloromethane] | 1921.71 ± 1.1 | 31.05 ± 0.18
ClC(Cl)(Cl)Br [bromotrichloromethane] | 2002.14 ± 1.2 | 8.428 ± 0.1
BrCBr [dibromomethane] | 2478.61 ± 1.8 | 9.932 ± 0.1
CCCCCCC [heptane] | 679.6 ± 0.18 | 9.916 ± 0.1
